These results are taken from publication PMC5526998, “Structural analysis of the regulatory mechanism of MarR protein Rv2887 in M. tuberculosis” (Scientific Reports, 2017).

In this assay the target is Rv2887 (Mycobacterium tuberculosis, UniProt P9WME9). The experiment in a line: biochemical.
Rv2887, sequence (P9WME9 whole entry): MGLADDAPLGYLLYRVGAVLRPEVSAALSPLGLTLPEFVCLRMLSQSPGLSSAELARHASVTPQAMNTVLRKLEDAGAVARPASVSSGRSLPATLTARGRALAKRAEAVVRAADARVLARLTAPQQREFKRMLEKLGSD

Usually Kd stands for the equilibrium constant for the complex coming apart. A higher Kd goes with lower affinity. `Cc1ccc(C)c(OCCCC(C)(C)C(=O)O)c1` [gemfibrozil] had an equilibrium dissociation constant (Kd) of 7.94 µM. The value for `Nc1ccc(C(=O)O)c(O)c1` [PAS] was 183 µM.
